# In ChEMBL document CHEMBL1156419, “Inhibition of metalloprotease botulinum serotype A from a pseudo-peptide binding mode to a small molecule that is active in primary neurons” (J Biol Chem, 2007):
# Where a SMILES comes first, the peptide text is derived from it. The star is where a group is joined. Propanoyl(2S-SH,3-Ph) = O=C([C@@H](S)Cc1ccccc1)*; X1 = O=C([C@H](S)Cc1ccccc1)*
# Test system: not listed separately
# Assay: Cytotoxicity in embryonic chicken spinal neurons at 1 to 5 uM after 3.5 hrs
# Parameters: species or system Gallus gallus
row,Structure (SMILES),Activity
1,N=C(N)N/N=C/c1ccc(-c2cc3ccc(/C=N/NC(=N)N)cc3s2)cc1,Toxic
2,N=C(N)c1ccc2oc(/C=C/C=C/C=C/c3cc4cc(C(=N)N)ccc4o3)cc2c1,Toxic

# Biological target: Botulinum neurotoxin type A (Clostridium botulinum (strain Hall / ATCC 3502 / NCTC 13319 / Type A), UniProt P0DPI1)
# Sequence (P0DPI1 2-448 limits assumed): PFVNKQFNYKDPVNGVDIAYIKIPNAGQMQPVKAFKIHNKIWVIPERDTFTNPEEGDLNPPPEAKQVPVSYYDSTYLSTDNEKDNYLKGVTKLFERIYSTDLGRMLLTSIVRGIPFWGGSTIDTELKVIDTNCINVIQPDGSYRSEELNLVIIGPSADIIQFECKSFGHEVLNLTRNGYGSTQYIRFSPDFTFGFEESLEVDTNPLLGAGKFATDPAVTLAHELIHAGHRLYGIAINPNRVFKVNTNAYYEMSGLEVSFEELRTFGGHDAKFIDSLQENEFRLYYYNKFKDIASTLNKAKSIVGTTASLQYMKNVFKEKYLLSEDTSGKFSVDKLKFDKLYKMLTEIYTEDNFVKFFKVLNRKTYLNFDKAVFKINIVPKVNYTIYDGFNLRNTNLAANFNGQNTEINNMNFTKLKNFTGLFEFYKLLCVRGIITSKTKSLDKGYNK
# Assay: Inhibition of BoNT/A light chain metalloprotease activity
row,Structure (SMILES),Ki
1,CSCC[C@H](NC(=O)[C@H](CCCCN)NC(=O)[C@@H](NC(=O)[C@H](C)NC(=O)[C@H](CCCNC(=N)N)NC(=O)[C@H](S)Cc1ccccc1)[C@@H](C)O)C(=O)N[C@@H](CC(C)C)C(=O)O (X1-RATKML-OH),8 µM
2,"CSCC[C@H](NC(=O)[C@H](C)NC(=O)[C@@H](NC(=O)[C@H](C)NC(=O)[C@H](CCCN=C(N)N)NC(=O)[C@@H](S)Cc1ccccc1)[C@@H](C)O)C(=O)N[C@@H](CC(C)C)C(=O)O ({Propanoyl(2S-SH,3-Ph)}-RATAML-OH)",3 µM
3,"C[C@H](NC(=O)[C@H](CCCNC(=N)N)NC(=O)[C@@H](S)Cc1ccccc1)C(=O)N[C@H](C(=O)N[C@@H](CCCCN)C(=O)O)[C@@H](C)O ({Propanoyl(2S-SH,3-Ph)}-RATK-OH)",4 µM
4,C[C@H](NC(=O)[C@H](CCCNC(=N)N)NC(=O)[C@@H](S)Cc1ccccc1)C(=O)N[C@H](C(=O)O)[C@@H](C)O,30 µM
5,CSCC[C@H](NC(=O)[C@H](CCCCN)NC(=O)[C@@H](NC(=O)[C@H](C)NC(=O)[C@H](CCCNC(=N)N)NC(=O)[C@@H](N)CS)[C@@H](C)O)C(=O)N[C@@H](CC(C)C)C(=O)O (H-CRATKML-OH),2 µM
6,NC(N)=NCCC[C@H](NC(=O)[C@@H](S)Cc1ccccc1)C(=O)O,60 µM
7,C[C@H](NC(=O)[C@H](CCCNC(=N)N)NC(=O)[C@@H](S)Cc1ccccc1)C(=O)O,60 µM
8,"CSCC[C@H](NC(=O)[C@H](CCCCN)NC(=O)[C@@H](NC(=O)[C@H](C)NC(=O)[C@H](CCCNC(=N)N)NC(=O)[C@@H](S)Cc1ccccc1)[C@@H](C)O)C(=O)N[C@@H](CC(C)C)C(=O)O ({Propanoyl(2S-SH,3-Ph)}-RATKML-OH)",0.3 µM
9,"CSCC[C@H](NC(=O)[C@H](CCCCN)NC(=O)[C@@H](NC(=O)[C@@H](NC(=O)[C@H](CCCN=C(N)N)NC(=O)[C@@H](S)Cc1ccccc1)C(C)C)[C@@H](C)O)C(=O)N[C@@H](CC(C)C)C(=O)O ({Propanoyl(2S-SH,3-Ph)}-RVTKML-OH)",2 µM
10,N=C(N)N/N=C/c1ccc(-c2cc3ccc(/C=N/NC(=N)N)cc3s2)cc1,3 µM
11,"CSCC[C@H](NC(=O)[C@H](CCCCN)NC(=O)[C@@H](NC(=O)[C@H](C)NC(=O)[C@H](CCCN=C(N)N)NC(=O)[C@@H](S)Cc1ccccc1)[C@@H](C)O)C(=O)O ({Propanoyl(2S-SH,3-Ph)}-RATKM-OH)",0.4 µM
12,"CSCC[C@H](NC(=O)[C@H](CCCCN)NC(=O)[C@@H](NC(=O)[C@H](C)NC(=O)[C@H](CCCCN)NC(=O)[C@@H](S)Cc1ccccc1)[C@@H](C)O)C(=O)N[C@@H](CC(C)C)C(=O)O ({Propanoyl(2S-SH,3-Ph)}-KATKML-OH)",> 300 µM
13,C(=C\c1cc2ccc(C3=NCCN3)cc2[nH]1)/c1ccc2cc(C3=NCCN3)[nH]c2c1,10 µM
14,"CC(C)C[C@H](NC(=O)[C@H](C)NC(=O)[C@H](CCCCN)NC(=O)[C@@H](NC(=O)[C@H](C)NC(=O)[C@H](CCCNC(=N)N)NC(=O)[C@@H](S)Cc1ccccc1)[C@@H](C)O)C(=O)O ({Propanoyl(2S-SH,3-Ph)}-RATKAL-OH)",0.7 µM
15,"CSCC[C@H](NC(=O)[C@H](CCCCN)NC(=O)[C@H](C)NC(=O)[C@H](C)NC(=O)[C@H](CCCNC(=N)N)NC(=O)[C@@H](S)Cc1ccccc1)C(=O)N[C@@H](CC(C)C)C(=O)O ({Propanoyl(2S-SH,3-Ph)}-RAAKML-OH)",0.7 µM
16,N=C(N)c1ccc2oc(/C=C/C=C/C=C/c3cc4cc(C(=N)N)ccc4o3)cc2c1,6 µM
17,"CSCC[C@H](NC(=O)[C@H](CCCCN)NC(=O)[C@@H](NC(=O)[C@H](C)NC(=O)[C@H](CCCNC(=N)N)NC(=O)[C@@H](S)Cc1ccccc1)[C@@H](C)O)C(=O)N[C@@H](CC(C)C)C(=O)NCC(=O)N[C@@H](CO)C(=O)NCC(=O)O ({Propanoyl(2S-SH,3-Ph)}-RATKMLGSG-OH)",0.3 µM
